≈ marks a conversion by molar mass, not a printed value.
System: S. aureus
Assay: Minimum inhibitory concentrations (MICs) for S. aureus of exemplary compounds (Table 2)
Format: cell-based
Settings: Staphylococcus aureus, minimum inhibitory concentrations for S. aureus; read-out: MICs
How it was run: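 Growth of S. aureus in media with or without compound, by broth microdilution in microtiter trays following NCCLS M7-A5 guidelines. Values are MICs in μg/mL.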

SMILES | MIC
COc1ccc2[nH]c(C(=O)NCc3ccc(-c4ccc(N5C[C@H](CNC(C)=O)OC5=O)cc4F)cc3)cc2c1 [Compound 4015, 5-Methoxy-1H-indole-2-carboxylic acid {4′-[5-(S)-(acetylamino-methyl)-2-oxo-oxazolidin-3-yl]-2′-fluoro-biphenyl-4-ylmethyl}-amide] | 4 µg/mL (≈ 7.54 µM)
CC(=O)NC[C@H]1CN(c2ccc(-c3ccc(C[S+]([O-])c4cnn[nH]4)cc3)c(F)c2)C(=O)O1 (stereo partly drawn) [Compound 2021, N-{3-[2-Fluoro-4′-(3H-[1,2,3]triazole-4-sulfinylmethyl)-biphenyl-4-yl]-2-oxo-oxazolidin-5-(S)-ylmethyl}-acetamide] | 2 µg/mL (≈ 4.37 µM)
CC(=O)NC[C@H]1CN(c2ccc(-c3ccc(CN4CCOC4=O)cc3)c(F)c2)C(=O)O1 [Compound 1101, N-{3-[2-Fluoro-4′-(2-oxo-oxazolidin-3-ylmethyl)-biphenyl-4-yl]-2-oxo-oxazolidin-5-(S)-ylmethyl}-acetamide] | 0.25 µg/mL (≈ 0.585 µM)
CC(=O)NC[C@H]1CC(c2ccc(-c3ccc(CNC(=O)c4ccccc4C(=O)O)cc3)nc2)=NO1 [Compound 4107, N-(4-{5-[5-(R)-(Acetylamino-methyl)-4,5-(S)-dihydro-isoxazol-3-yl]-pyridin-2-yl}-benzyl)-phthalamic acid] | 128 µg/mL (≈ 271 µM)
CC(=O)NC[C@H]1CN(c2ccc(-c3ccc(CNc4nc(CNC(=O)[C@H](C)N)ns4)cc3)c(F)c2)C(=O)O1 [Compound 2013, N-[5-({4′[5-(S)-(Acetylamino-methyl)-2-oxo-oxazolidin-3-yl]-2′-fluoro-biphenyl-4-ylmethyl}-amino)-[1,2,4]thiadiazol-3-ylmethyl]-2-(S)-amino-propionamide] | 1 µg/mL (≈ 1.85 µM)
CC(=O)NC[C@H]1CN(c2ccc(-c3ccc(CSCc4ccccn4)cc3)c(F)c2)C(=O)O1 [Compound 4216, N-{3-[2-Fluoro-4′-(pyridin-2-ylmethylsulfanylmethyl)-biphenyl-4-yl]-2-oxo-oxazolidin-5-(S)-ylmethyl}-acetamide] | 0.5 µg/mL (≈ 1.07 µM)
CC(=O)NC[C@H]1CN(c2ccc(-c3ccc(CSc4cnn[nH]4)nc3)c(F)c2)C(=O)O1 [Compound 2040, N-(3-{3-Fluoro-4-[6-(3H-[1,2,3]triazol-4-ylsulfanylmethyl)-pyridin-3-yl]-phenyl}-2-oxo-oxazolidin-5-(S)-ylmethyl)-acetamide] | 0.25 µg/mL (≈ 0.565 µM)
CC(=O)NC[C@H]1CN(c2ccc(-c3ccc(CNCCCc4cnn[nH]4)cc3)c(F)c2)C(=O)O1 [Compound 4258, N-[3-(2-Fluoro-4′-{[3-(3H-[1,2,3]triazol-4-yl)-propylamino]-methyl}-biphenyl-4-yl)-2-oxo-oxazolidin-5-(S)-ylmethyl]-acetamide] | 4 µg/mL (≈ 8.57 µM)
CC(=O)NC[C@H]1CN(c2ccc(-c3ccc(COCc4ccccn4)cc3)c(F)c2)C(=O)O1 [Compound 4192, N-{3-[2-Fluoro-4′-(pyridin-2-ylmethoxymethyl)-biphenyl-4-yl]-2-oxo-oxazolidin-5-(S)-ylmethyl}-acetamide] | 1 µg/mL (≈ 2.22 µM)
CC(=O)NC[C@H]1CN(c2ccc(-c3ccc(CNCc4csc(-c5ccccc5)n4)cc3)c(F)c2)C(=O)O1 [Compound 4122, N-[3-(2-Fluoro-4′-{[(2-phenyl-thiazol-4-ylmethyl)-amino]-methyl}-biphenyl-4-yl)-2-oxo-oxazolidin-5-(S)-ylmethyl]-acetamide] | 1 µg/mL (≈ 1.88 µM)
CC(=O)NC[C@H]1CN(c2ccc(-c3ccc(CNCc4csc5ccccc45)cc3)c(F)c2)C(=O)O1 [Compound 4077, N-[3-(4′-{[(Benzo[b]thiophen-3-ylmethyl)-amino]-methyl}-2-fluoro-biphenyl-4-yl)-2-oxo-oxazolidin-5-(S)-ylmethyl]-acetamide] | 16 µg/mL (≈ 31.8 µM)
CC(=O)NC[C@H]1CN(c2ccc(-c3ccc(CN(Cc4nnnn4C)C(=O)OC(C)(C)C)cc3)c(F)c2)C(=O)O1 [Compound 4280, {4′-[5-(S)-(Acetylamino-methyl)-2-oxo-oxazolidin-3-yl]-2′-fluorobiphenyl-4-ylmethyl}-(1-methyl-1H-tetrazol-5-ylmethyl)-carbamic acid tert-butyl ester] | 1 µg/mL (≈ 1.81 µM)
CC(=O)NC[C@H]1CN(c2ccc(-c3ccc(CNCCSc4ccccn4)cc3)c(F)c2)C(=O)O1 [Compound 5004, N-[3-(2-Fluoro-4′-{[2-(pyridin-2-ylsulfanyl)-ethylamino]-methyl}-biphenyl-4-yl)-2-oxo-oxazolidin-5-(S)-ylmethyl]-acetamide] | 1 µg/mL (≈ 2.02 µM)
COc1cc(CNCc2ccncc2)ccc1-c1ccc(N2C[C@H](CNC(C)=O)OC2=O)cc1F [Compound 4027, N-[3-(2-Fluoro-2′-methoxy-4′-{[(pyridin-4-ylmethyl)-amino]-methyl}-biphenyl-4-yl)-2-oxo-oxazolidin-5-(S)-ylmethyl]-acetamide] | 8 µg/mL (≈ 16.7 µM)
COc1ccc(CN(C)Cc2ccc(-c3ccc(N4C[C@H](CNC(C)=O)OC4=O)cc3F)cc2)cn1 [Compound 4055, N-[3-(2-Fluoro-4′-{[(6-methoxy-pyridin-3-ylmethyl)-methyl-amino]-methyl}-biphenyl-4-yl)-2-oxo-oxazolidin-5-(S)-ylmethyl]-acetamide] | 2 µg/mL (≈ 4.06 µM)
CC(=O)NC[C@H]1CN(c2ccc(-c3ccc(CNCCCn4ccnc4)cc3)c(F)c2)C(=O)O1 [Compound 4079, N-(3-{2-Fluoro-4′-[(3-imidazol-1-yl-propylamino)-methyl]-biphenyl-4-yl}-2-oxo-oxazolidin-5-(S)-ylmethyl)-acetamide] | 32 µg/mL (≈ 68.7 µM)
CC(=O)NC[C@H]1CN(c2ccc(-c3ccc(COCc4ccccn4)cn3)c(F)c2)C(=O)O1 [Compound 4197, N-(3-{3-Fluoro-4-[5-(pyridin-2-ylmethoxymethyl)-pyridin-2-yl]-phenyl}-2-oxo-oxazolidin-5-(S)-ylmethyl)-acetamide] | 4 µg/mL (≈ 8.88 µM)
CC(=O)NC[C@H]1CN(c2ccc(-c3ccc(S(=O)(=O)NCc4ccncc4)cc3)c(F)c2)C(=O)O1 [Compound 3005, N-(3-{2-Fluoro-4′-[(pyridin-4-ylmethyl)-sulfamoyl]-biphenyl-4-yl}-2-oxo-oxazolidin-5-(S)-ylmethyl)-acetamide] | 2 µg/mL (≈ 4.01 µM)
CC(=O)NC[C@H]1CN(c2ccc(-c3ccc(Cn4nnnc4Cl)cc3)c(F)c2)C(=O)O1 [Compound 1083, N-{3-[4′-(5-Chloro-tetrazol-1-ylmethyl)-2-fluoro-biphenyl-4-yl]-2-oxo-oxazolidin-5-(S)-ylmethyl}-acetamide] | 0.5 µg/mL (≈ 1.12 µM)
CC(=O)NC[C@H]1CN(c2ccc(-c3ccc(CNCc4cnccc4N)cc3)c(F)c2)C(=O)O1 [Compound 4135, N-[3-(4′-{[(4-Amino-pyridin-3-ylmethyl)-amino]-methyl}-2-fluoro-biphenyl-4-yl)-2-oxo-oxazolidin-5-(S)-ylmethyl]-acetamide] | 4 µg/mL (≈ 8.63 µM)
CC(=O)NC[C@H]1CN(c2ccc(-c3ccc(CN4CC[C@H](N)C4)cc3)c(F)c2)C(=O)O1 [Compound 1092, N-{3-[4′-(3-(S)-Amino-pyrrolidin-1-ylmethyl)-2-fluoro-biphenyl-4-yl]-2-oxo-oxazolidin-5-(S)-ylmethyl}-acetamide] | 4 µg/mL (≈ 9.38 µM)
CC(=O)NC[C@H]1CN(c2ccc(-c3ccc(C[S+]([O-])c4nc(C)cs4)cc3)c(F)c2)C(=O)O1 (stereo partly drawn) [Compound 2037, N-{3-[2-Fluoro-4′-(4-methyl-thiazole-2-sulfinylmethyl)-biphenyl-4-yl]-2-oxo-oxazolidin-5-(S)-ylmethyl}-acetamide] | 1 µg/mL (≈ 2.05 µM)
CC(=O)NC[C@H]1CN(c2ccc(-c3ccc(CNCCN4CCCC4)cc3)c(F)c2)C(=O)O1 [Compound 4259, N-(3-{2-Fluoro-4′-[(2-pyrrolidin-1-yl-ethylamino)-methyl]-biphenyl-4-yl}-2-oxo-oxazolidin-5-(S)-ylmethyl)-acetamide] | 4 µg/mL (≈ 8.8 µM)
COc1cc(CNCc2ccoc2)ccc1-c1ccc(N2C[C@H](CNC(C)=O)OC2=O)cc1F [Compound 4028, N-[3-(2-Fluoro-4′-{[(furan-3-ylmethyl)-amino]-methyl}-2′-methoxy-biphenyl-4-yl)-2-oxo-oxazolidin-5-(S)-ylmethyl]-acetamide] | 8 µg/mL (≈ 17.1 µM)
CC(=O)NC[C@H]1CN(c2ccc(-c3ccc(CNC(=O)C(N)c4cccnc4)cc3)c(F)c2)C(=O)O1 (stereo partly drawn) [Compound 4294, N-{4′-[5-(S)-(Acetylamino-methyl)-2-oxo-oxazolidin-3-yl]-2′-fluoro-biphenyl-4-ylmethyl}-2-amino-2-pyridin-3-yl-acetamide] | 4 µg/mL (≈ 8.14 µM)
CC(=O)NC[C@H]1CN(c2ccc(-c3ccc(C(=O)N[C@@H](Cc4cnc[nH]4)C(N)=O)cc3)c(F)c2)C(=O)O1 [Compound 4173, 4′-[5-(S)-(Acetylamino-methyl)-2-oxo-oxazolidin-3-yl]-2′-fluoro-biphenyl-4-carboxylic acid [1-carbamoyl-2-(S)-(3H-imidazol-4-yl)-ethyl]-amide] | 32 µg/mL (≈ 62.9 µM)
CC(=O)NC[C@H]1CN(c2ccc(-c3ccc(CNCc4ccncc4)cc3)c(F)c2)C(=O)O1 [Compound 4018, N-[3-(2-Fluoro-4′-{[(pyridin-4-ylmethyl)-amino]-methyl}-biphenyl-4-yl)-2-oxo-oxazolidin-5-(S)-ylmethyl]-acetamide] | 1 µg/mL (≈ 2.23 µM)
CC(=O)NC[C@H]1CN(c2ccc(-c3ccc([C@@H](CO)NCc4cocn4)cc3)c(F)c2)C(=O)O1 [Compound 4200, N-[3-(2-Fluoro-4′-{2-hydroxy-1-(S)-[(oxazol-4-ylmethyl)-amino]-ethyl}-biphenyl-4-yl)-2-oxo-oxazolidin-5-(S)-ylmethyl]-acetamide] | 4 µg/mL (≈ 8.54 µM)

Same assay, conditions: Staphylococcus aureus, read-out: MICs

SMILES | MIC
CC(=O)NC[C@H]1CN(c2ccc(-c3ccc(CN4CC(C#N)C4)cc3)c(F)c2)C(=O)O1 [Compound 1022, N-{3-[4′-(3-Cyano-azetidin-1-ylmethyl)-2-fluoro-biphenyl-4-yl]-2-oxo-oxazolidin-5-(S)-ylmethyl}-acetamide] | 0.25 µg/mL (≈ 0.592 µM)
CC(=O)NC[C@H]1CN(c2cc(F)c(-c3ccc(Cn4cc(CO)nn4)cc3)c(F)c2)C(=O)O1 [Compound 1018, N-{3-[2,6-Difluoro-4′-(4-hydroxymethyl-[1,2,3]triazol-1-ylmethyl)-biphenyl-4-yl]-2-oxo-oxazolidin-5-(S)-ylmethyl}-acetamide] | 1 µg/mL (≈ 2.19 µM)

Reference: patent publication US10471046B2, “Method for treating, preventing, or reducing the risk of skin infection” (Melinta Subsidiary Corp., priority 2014, dated 2019)
